The test system of assay [1] is MIA-induced degenerative arthritis model. Put plainly: MIA-induced degenerative arthritis model. Conditions: vs PBS buffer group; for diameter of the knee joint: day 1 after MIA injection, i.p. It counts as in vivo, C57BL/6J mice. How it is done: As a degenerative arthritis model, 9-week-old specific pathogen free (SPF) male C57BL/6J mice were anesthetized, the area around the right knee joint was cleanly shaved, and 10 μL of MIA solution (monosodium iodoacetate 0.5 mg in 10 μL 0.9% sterile saline) was injected into the knee joint cavity to induce arthritis. From 3 days before MIA (monosodium iodoacetate) solution injection, Amuc_1409 or PEP001, PEP002, PEP003, PEP004, PEP005, PEP006, PEP007, PEP008, PEP009, PEP010, PEP011, PEP012, or PEP013 was dissolved in PBS buffer at a concentration of 6.7 μM and then injected into the mouse peritoneal cavity at 150 μL per animal once a day at the same time. On day 3 (0 days) after administration of Amuc_1409 or PEP001 to PEP013, an additional intraperitoneal injection was given 1 hour before MIA injection, the drug was intraperitoneally injected once a day at the same time after MIA injection, and the experiment was terminated on the 30th day after MIA injection. In the control group, the same volume of PBS buffer was injected intraperitoneally. After MIA injection, the diameter of the knee joint was measured using a caliper for 7 days at 2-day intervals (0, 1, 3, 5, and 7 days) to evaluate swelling caused by inflammatory changes of the joint. […] At this time, the weight bearing on the limb was lower as arthritis was more severe. The weight-bearing weight (g) of each of both paws was measured, and in this experiment, the value was expressed as the ratio (%) of the right hind limb with arthritis to the total hind limb. Weight bearing ratio (%)=weight-bearing weight of right hind limb with arthritis (g)/weight-bearing weight of both hind limbs (g)×100 After termination of the experiment, the test animals were sacrificed, then the knee joint tissue of the mouse was fixed with 10% neutral buffered formalin, and the bone was decalcified with a 0.5 M EDTA solution. Next, the joint tissue was embedded in paraffin to prepare a 5 μm joint section, and Safranin O staining was performed to histopathologically analyze the degree of damage to the cartilage tissue. At this time, the degree of damage to the cartilage tissue was evaluated by examining the degree of safranin O staining of the sections and scored according to OARSI (Osteoarthritis Research Society International grade) guidelines. The scoring criteria according to the OARSI guidelines are as follows (Table 1). [table]

For assay [2], the system named is collagen induced arthritis (CIA) model. Description: Collagen induced arthritis (CIA) rheumatoid arthritis model. Format: in vivo, DBA/1J mice. The conditions noted are these: vs PBS buffer group; for thickness of the ankle joint: at the end of the experiment.
Assay [3] relates to non-alcoholic hepatitis model. Put plainly: High-fat diet-induced non-alcoholic steatohepatitis model, liver gene expression. Format: in vivo, C57BL/6J mice. The conditions noted are these: RT-qPCR; vs PBS buffer group. The procedure: A non-alcoholic hepatitis model was induced by feeding a high-fat diet to 8-week-old SPF male C57BL/6J mice. The experiment for groups administered with Amuc_1409 and PEP001 to PEP005 was performed as follows. Mice fed a high-fat diet for 45 weeks were fed a high-fat diet for an additional 3 weeks, and Amuc_1409 was dissolved in PBS buffer at a concentration of 2.4 μM and then orally administered to the mice by 150 μL per animal at the same time once a day until the end of the experiment, or mice fed a high-fat diet for 8 weeks were fed a high-fat diet for an additional 3 weeks, and PEP001, PEP002, PEP003, PEP004, or PEP005 was dissolved in PBS buffer at a concentration of 2.4 μM and then orally administered to the mice by 150 μL per animal at the same time once a day until the end of the experiment. To the control group, PBS buffer was orally administered in the same manner. The experiment for groups administered with PEP006 to PEP013 was performed as follows. The non-alcoholic hepatitis model was induced by ad libitum feeding of a high-fat diet for 32, 50, or 53 weeks. Mice fed a high-fat diet for 50 weeks were fed a high-fat diet for an additional 3 weeks, and a novel tetrapeptide PEP006, PEP007, PEP008, PEP009, or PEP010 was dissolved in PBS buffer at a concentration of 0.2 μg/150 μL and then orally administered to the mice by 150 μL per animal at the same time until the end of the test, and mice fed a high-fat diet for 53 weeks were fed a high-fat diet for an additional 3 weeks, and a novel […] PEP011, PEP012, or PEP013 was dissolved in PBS buffer at a concentration of 0.2 μg/150 μL and then orally administered to the mice by 150 μL per animal at the same time until the end of the test. To the control group, PBS buffer was orally administered in the same manner. At the end of the experiment, a part of the liver harvested was homogenized with Trizol to extract RNA. Reverse transcriptase was added to the obtained RNA and reacted to synthesize cDNA, and SYBR Green and primers were added to perform quantitative real-time PCR (RT-qPCR), and then the expression levels of genes such as Tnfα, Il-1β, Il-10, and Il-1rn were quantified.
Background: Real-time PCR tracks product formation cycle by cycle.

Where [4] appears, read: 2 weeks and 4 weeks after MIA injection.
Where [5] appears, read: days 3, 5, and 7 after MIA injection.

Entries after “also recorded” stand apart in the source; their conditions may differ.

This note sets out measurements from patent publication US20240209022A1, “NOVEL PEPTIDE HAVING ANTI-INFLAMMATORY AND TISSUE REGENERATIVE ACTIONS” (KOREA RESEARCH INSTITUTE OF BIOSCIENCE AND BIOTECHNOLOGY, priority 2020, published 2024).

In the case of AGAY (PEP006), the weight bearing ratio entry in assay [1] (2 weeks after MIA injection) is given as “significantly increased”. For the same substance, in assay [1] (4 weeks after MIA injection), the weight bearing ratio result is “significantly increased”. Besides, in assay [2], the “thickness of the ankle joint” value was “significantly decreased”, the “arthritis index (clinical score by date)” value is listed as “significantly decreased on day 28 after the first injection of CII; also recorded: tended to decrease from day 30 to the experiment end day” and the “swelling of the hind paws by macrophotography” value (from here on “swelling of the hind paws”) is “remarkably improved”. Moreover, the “Tnfα gene expression in liver tissue” value in assay [3] is “tended to decrease”.
AGS [PEP012]: in assay [1] (setting [4]), the weight bearing ratio entry was “significantly improved”. In assay [2], the “thickness of the ankle joint” value is on record as “significantly decreased”, the “arthritis index (clinical score by date)” value is given as “significantly decreased from day 32 after the first CII injection to the experiment end day” and the “swelling of the hind paws” value is recorded as “relieved overall”. Moreover, in assay [3], the “Il-1p gene expression in liver tissue” value is “tended to decrease”.
With AIS [PEP013], the weight bearing ratio entry in assay [1] (setting [4]) is listed as “tended to be improved”. Further, in assay [2], the “thickness of the ankle joint” value is given as “tended to decrease”, the “arthritis index (clinical score by date)” value is reported as “tended to decrease” and the “swelling of the hind paws” value is listed as “relieved overall”. Besides, in assay [3], the “Ifnγ gene expression in liver tissue” value was “tended to decrease” and the “Il-1p gene expression in liver tissue” value is reported as “significantly decreased”.
With AQS [PEP011], the weight bearing ratio result in assay [1] (setting [4]) is reported as “significantly improved”. Besides, in assay [2], the “thickness of the ankle joint” value is listed as “significantly decreased”, the “arthritis index (clinical score by date)” value was “significantly decreased from day 30 after the first CII injection to the experiment end day” and the “swelling of the hind paws” value was “relieved overall”. Moreover, in assay [3], the “Ifnγ gene expression in liver tissue” value is recorded as “tended to decrease” and the “Il-1p gene expression in liver tissue” value is “tended to decrease”.
As for AVS (AVSSIKGAY) [PEP004], the weight bearing ratio result in assay [1] (setting [4]) is on record as “significantly increased”. Besides, the “diameter of the knee joint” value in assay [1] is “significantly decreased”. In addition, the “thickness of the knee joint” value in assay [1] (setting [5]) was “significantly decreased”. Moreover, in assay [2], the “thickness of the ankle joint” value was “significantly decreased”, the “arthritis index (clinical score by date)” value is listed as “significantly decreased from day 32 after the first CII injection to the experiment end day” and the “swelling of the hind paws” value is “reduced overall”. Moreover, in assay [3], the “11-10, which is an anti-inflammatory index (liver gene expression)” value was “significantly increased”; the “Il-1p gene expression in liver tissue” value is “decreased close to a significant level”; the “Tnfα gene expression in liver tissue” value was “significantly decreased”.
Take AVSSI (PEP002): the weight bearing ratio result in assay [1] (setting [4]) is listed as “significantly increased”. Further, in assay [1], the “diameter of the knee joint” value was “significantly decreased”. For the same substance, the “thickness of the knee joint” value in assay [1] (setting [5]) is listed as “significantly decreased”. Further, in assay [2], the “thickness of the ankle joint” value is “significantly decreased”, the “arthritis index (clinical score by date)” value is “significantly decreased from day 26 after the first CII injection to the experiment end day” and the “swelling of the hind paws” value was “reduced overall”. Moreover, in assay [3], the “11-10, which is an anti-inflammatory index (liver gene expression)” value is given as “tended to increase close to a significant level” and the “Il-1p gene expression in liver tissue” value is “significantly decreased”.
Turning to AVSSIKGAY (PEP001), the weight bearing ratio entry in assay [1] (setting [4]) is on record as “significantly increased”. Besides, the “diameter of the knee joint” value in assay [1] was “tended to decrease”. The “thickness of the knee joint” value in assay [1] (setting [5]) is recorded as “significantly decreased”. Further, in assay [2], the “thickness of the ankle joint” value is “significantly decreased”, the “arthritis index (clinical score by date)” value was “significantly decreased from day 30 after the first CII injection to the experiment end day” and the “swelling of the hind paws” value was “reduced overall”. Moreover, in assay [3], the “11-10, which is an anti-inflammatory index (liver gene expression)” value is on record as “significantly increased” and the “Il-1p gene expression in liver tissue” value was “decreased close to a significant level”.
As to GAY [PEP005], the weight bearing ratio entry in assay [1] (setting [4]) is reported as “significantly increased”. Also, the “diameter of the knee joint” value in assay [1] was “tended to decrease”. For the same substance, the “thickness of the knee joint” value in assay [1] (setting [5]) is “significantly decreased”. Also, in assay [2], the “thickness of the ankle joint” value is given as “significantly decreased”, the “arthritis index (clinical score by date)” value is listed as “significantly decreased from day 28 after the first CII injection to the experiment end day” and the “swelling of the hind paws” value is “reduced overall”. For the same substance, in assay [3], the “11-10, which is an anti-inflammatory index (liver gene expression)” value is “significantly increased”; the “Il-1p gene expression in liver tissue” value was “significantly decreased”; the “Tnfα gene expression in liver tissue” value is on record as “significantly decreased”.
Consider IGAY (PEP008), for which the weight bearing ratio entry in assay [1] (2 weeks after MIA injection) is on record as “significantly increased”. The weight bearing ratio entry in assay [1] (4 weeks after MIA injection) was “significantly increased”. In assay [1], the “diameter of the knee joint” value is reported as “significantly decreased”. In addition, the “thickness of the knee joint” value in assay [1] (day 3 after MIA injection) is listed as “significantly decreased”. In addition, the “thickness of the knee joint” value in assay [1] (day 5 after MIA injection) is reported as “significantly decreased”. Also, in assay [1] (day 7 after MIA injection), the “thickness of the knee joint” value is on record as “significantly decreased”. In assay [2], the “thickness of the ankle joint” value was “significantly decreased”, the “arthritis index (clinical score by date)” value was “significantly decreased from day 30 to day 32 after the first CII” and the “swelling of the hind paws” value was “remarkably improved”. Further, in assay [3], the “Ifnγ gene expression in liver tissue” value is “decreased close to a significant level”, the “Il-1p gene expression in liver tissue” value is “significantly decreased”, the “Il-6 gene expression in liver tissue” value is reported as “tended to decrease” and the “Tnfα gene expression in liver tissue” value is reported as “significantly decreased”.
Take KGAY (PEP003): the weight bearing ratio result in assay [1] (setting [4]) is “significantly increased”. The “diameter of the knee joint” value in assay [1] is “significantly decreased”. Further, the “thickness of the knee joint” value in assay [1] (setting [5]) is recorded as “significantly decreased”. In assay [2], the “thickness of the ankle joint” value is on record as “significantly decreased”, the “arthritis index (clinical score by date)” value is “significantly decreased from day 26 after the first CII injection to the experiment end day” and the “swelling of the hind paws” value is on record as “reduced overall”. In addition, in assay [3], the “11-10, which is an anti-inflammatory index (liver gene expression)” value is “significantly increased”; the “Il-1p gene expression in liver tissue” value is given as “significantly decreased”; the “Tnfα gene expression in liver tissue” value was “significantly decreased”.
